The values that follow come from patent publication US8378115B2, “Monomethine dyes” (Thermo Fisher Scientific (Milwaukee) LLC, priority 2007, dated 2013).

One series relates to λDNA. Put plainly: Fluorescence enhancement of dye with λDNA. It is filed as binding. The settings on record: for Fluorescence relative to TO / Fluorescence λ DNA/ssDNA: 0.8 μM dye, 3.2 μM DNA, one minute; for Ratio λ DNA/ss: fluorescence λ DNA vs ss-DNA; for Relative Fluorescent Intensity: λ DNA, TO = 1.0. Here is the method: (§1) Stock solutions (8 mM) of each dye were prepared by dissolving each compound in dimethylsulfoxide (DMSO). Stock dye solutions were diluted to a desired concentration in tris-EDTA (TE) buffer (10 mM Tris, 1 mM EDTA, pH 8.0) immediately prior to use.
(§2) Stock solutions of λDNA and 40mer synthetic oligonucleotides (dsDNA and ssDNA), each at a concentration of 40 μM, were prepared in TE buffer. All DNA concentrations described are in base pairs of nucleotides. The DNA stock solutions were diluted to a desired concentration in TE buffer before being mixed with diluted dye solutions.
(§3) Fluorescence enhancement measurements of each dye were obtained by incubating dyes with λDNA, 40mer dsDNA, or 40mer ssDNA at a final concentration of 0.8 μM dye and 3.2 μM DNA for one minute. Fluorescence scans of the samples were performed with excitation wavelengths corresponding to the absorption maxima of the dyes. The resulting fluorescence intensities were compared to fluorescence intensities of Thiazole Orange (TO) and a compound equivalent to SYBR Green without the side chain (V02-06101), shown below,
(§4) [drawing 15] binding to λDNA, 40mer dsDNA, or 40mer ssDNA at a final concentration of 0.8 μM TO and 3.2 μM DNA for one minute, the same as for the tested dyes. The discrimination ratio between dsDNA and ssDNA was calculated by comparing the fluorescence intensities.

Series [1] can be described thus: Absorption spectra of dye alone. Type of series: physicochemical. The settings on record: for ε: in M-1·cm-1 (unit assumed). Here is the method:
as §1
[…] […] Optical densities were determined at the absorbance maxima and the extinction coefficients were calculated using Beer's law.

A further series concerns 40mer dsDNA. Put plainly: Fluorescence enhancement of dye with 40mer dsDNA. To be noted: for Relative Fluorescent Intensity: 40-mer ds-DNA, TO = 1.0; for Ratio ds/ss: fluorescence 40-mer ds-DNA vs ss-DNA. It is filed as binding. The protocol:
as §1, §2, §3, §4

Another series relates to rRNA. Put plainly: Fluorescence of dye with rRNA. It is filed as binding. To be noted: for Ratio rRNA/ds: fluorescence rRNA vs 40-mer ds-DNA; for Ratio rRNA/ss: fluorescence rRNA vs 40-mer ss-DNA.

Structures are written as SMILES.

Regarding `CCN1C(=Cc2cc(-c3ccccc3)[o+]c3cc(OC)ccc23)Sc2ccccc21` [Dye V02-06132], in the series with λDNA, the “Fluorescence relative to TO” value is recorded as “None” and the “Fluorescence λ DNA/ssDNA” value is listed as “None”. Besides, in series [1] (Ethanol), the λex was 488 nm and the ε is 43,000. In addition, in series [1] (TE Buffer, 8 μM dye), the λex turned out to be 480 nm and the ε is recorded as 18,850.
Consider `CCN(CC)c1ccc2c(/C=C3\Sc4ccccc4N3C)cc(N(C)CCC[N+](C)(C)C)[o+]c2c1` [Dye V11-02190], for which, in the series on λDNA, the “Ratio λ DNA/ss” value is 3.1 and the “Relative Fluorescent Intensity” value is 1.9. Also, in the series on 40mer dsDNA, the “Relative Fluorescent Intensity” value came out at 1.7 and the Ratio ds/ss turned out to be 1.9. In series [1] (Ethanol), the λex was found to be 481 nm and the ε is listed as 25,600. In addition, in series [1] (TE Buffer, 8 μM dye), the λex is reported as 477 nm and the ε is 16,940. Also, in the series on rRNA, the “Ratio rRNA/ds” value is 0.7 and the “Ratio rRNA/ss” value was 1.4.
Regarding `CCCN(CCCN(C)C)C1=C/C(=C\c2sc3ccccc3[n+]2C)c2ccccc2N1c1ccccc1` [SYBR Green, reference compound], in the series on λDNA, the “Fluorescence relative to TO” value was found to be 10.6, the “Fluorescence λ DNA/ssDNA” value was found to be 8.3, the “Ratio λ DNA/ss” value is given as 8.3 and the “Relative Fluorescent Intensity” value amounted to 10.6. Further, in the series with 40mer dsDNA, the “Relative Fluorescent Intensity” value is 15.0 and the Ratio ds/ss was found to be 7.5. In series [1] (TE Buffer, 8 μM dye), the λex stood at 494 nm and the ε was 73,000. In the series with rRNA, the “Ratio rRNA/ds” value is 0.3 and the “Ratio rRNA/ss” value is on record as 1.0.
Take `C[n+]1c(/C=C2\C=CN(c3ccccc3)c3ccccc32)sc2ccccc21` [Dye V02-06101, reference compound]: in the series with λDNA, the “Fluorescence relative to TO” value was found to be 0.8 and the “Fluorescence λ DNA/ssDNA” value worked out at 4.1.
For `CCN(CC)c1ccc2c(c1)O/C(=C\c1cc(N(C)CCCN(C)C)[o+]c3cc(N(CC)CC)ccc13)C=C2C` [Dye V13-01026], in the series on λDNA, the “Fluorescence relative to TO” value was found to be 0.9, the “Fluorescence λ DNA/ssDNA” value was 1.4, the “Ratio λ DNA/ss” value is recorded as 1.4 and the “Relative Fluorescent Intensity” value worked out at 0.9. Moreover, in the series on 40mer dsDNA, the “Relative Fluorescent Intensity” value turned out to be 1.0 and the Ratio ds/ss amounted to 0.7. In series [1] (Ethanol), the λex is 585 nm and the ε is listed as 48,000. Moreover, in series [1] (TE Buffer, 8 μM dye), the λex came out at 543 nm and the ε is on record as 25,013.
In the case of `CCN(CCCN(C)C)c1ccc2c(/C=C3\Sc4ccccc4N3CC)cc(C(C)(C)C)[o+]c2c1` [Dye V02-07015], in the series on λDNA, the “Fluorescence relative to TO” value was 4.0, the “Fluorescence λ DNA/ssDNA” value amounted to 3.7, the “Ratio λ DNA/ss” value is 3.7 and the “Relative Fluorescent Intensity” value was determined as 4.0. Further, in the series on 40mer dsDNA, the “Relative Fluorescent Intensity” value is recorded as 4.0 and the Ratio ds/ss turned out to be 2.3. In series [1] (Ethanol), the λex was 522 nm and the ε is on record as 50,000. In addition, in series [1] (TE Buffer, 8 μM dye), the λex was determined as 515 nm and the ε is given as 37,365.
For the compound `CN1C(=Cc2cc[n+](C)c3ccccc23)Sc2ccccc21` [TO, Thiazole Orange, reference compound], in the series on λDNA, the “Fluorescence relative to TO” value was 1, the “Fluorescence λ DNA/ssDNA” value is recorded as 3.3, the “Ratio λ DNA/ss” value stood at 5.6 and the “Relative Fluorescent Intensity” value is listed as 1.0. Moreover, in the series on 40mer dsDNA, the “Relative Fluorescent Intensity” value was determined as 1.0 and the Ratio ds/ss is 3.5. In addition, in series [1] (Ethanol), the λex is 501 nm and the ε is listed as 77,000. In series [1] (TE Buffer, 8 μM dye), the λex is 501 nm and the ε was 52,773. In addition, in the series on rRNA, the “Ratio rRNA/ds” value is on record as 0.8 and the “Ratio rRNA/ss” value was 2.3.
Take `CCN(CC)c1ccc2c(/C=C3\Sc4ccccc4N3CC)cc(-c3ccccc3)[o+]c2c1` [Dye V02-06187]: in the series on λDNA, the “Fluorescence relative to TO” value is 0.7, the “Fluorescence λ DNA/ssDNA” value was determined as 6.7, the “Ratio λ DNA/ss” value is listed as 5.2 and the “Relative Fluorescent Intensity” value is 0.7. Besides, in the series on 40mer dsDNA, the “Relative Fluorescent Intensity” value was 0.5 and the Ratio ds/ss was 2.1. For the same compound, in series [1] (Ethanol), the λex stood at 550 nm and the ε was 55,000. Further, in series [1] (TE Buffer, 8 μM dye), the λex was determined as 524 nm and the ε is 19,668.
Turning to `CCN(CC)c1ccc2c(C=C3Sc4ccccc4N3CC)cc(C(C)(C)C)[o+]c2c1` [Dye V02-06124], in the series on λDNA, the “Fluorescence relative to TO” value is given as 0.5, the “Fluorescence λ DNA/ssDNA” value is on record as 1.6, the “Ratio λ DNA/ss” value was 1.6 and the “Relative Fluorescent Intensity” value is listed as 0.5. In the series with 40mer dsDNA, the “Relative Fluorescent Intensity” value is reported as 0.3 and the Ratio ds/ss stood at 1.2. In series [1] (Ethanol), the λex stood at 530 nm and the ε was 85,000. In series [1] (TE Buffer, 8 μM dye), the λex is on record as 515 nm and the ε is 46,625.
`CCN(CC)c1ccc2c(/C=C3\Sc4ccccc4N3C)cc(N3CCN(CCO)CC3)[o+]c2c1` [Dye V13-01184]: in the series on λDNA, the “Fluorescence relative to TO” value is 5.3, the “Fluorescence λ DNA/ssDNA” value was 6.1, the “Ratio λ DNA/ss” value is reported as 2.0 and the “Relative Fluorescent Intensity” value is listed as 5.3. Also, in the series with 40mer dsDNA, the “Relative Fluorescent Intensity” value turned out to be 6.1 and the Ratio ds/ss is 1.4. In series [1] (Ethanol), the λex is reported as 480 nm and the ε was 83,000. In series [1] (TE Buffer, 8 μM dye), the λex amounted to 455 nm and the ε is on record as 40,321. Also, in the series with rRNA, the “fluorescence enhancement when bound with RNA” value was “significant fluorescence enhancement”, the “Ratio rRNA/ds” value is 1.0 and the “Ratio rRNA/ss” value stood at 1.4.
In the case of `CCN1c2cc3[o+]c(N(C)CCCN(C)C)cc(/C=C4\Sc5ccccc5N4C)c3cc2C(C)=CC1(C)C` [Dye V12-02144], in the series on λDNA, the “Fluorescence relative to TO” value is 3.6, the “Fluorescence λ DNA/ssDNA” value was 2.8, the “Ratio λ DNA/ss” value worked out at 2.0 and the “Relative Fluorescent Intensity” value was found to be 1.7. For the same compound, in the series with 40mer dsDNA, the “Relative Fluorescent Intensity” value was 2.7 and the Ratio ds/ss was determined as 2.1. Further, in series [1] (Ethanol), the λex came to 492 nm and the ε is reported as 49,000. For the same compound, in series [1] (TE Buffer, 8 μM dye), the λex is on record as 484 nm and the ε is 28,355. Further, in the series on rRNA, the “Ratio rRNA/ds” value came out at 0.7 and the “Ratio rRNA/ss” value is on record as 1.5.
Take `CCN1C(=Cc2cc(-c3ccccc3)[o+]c3cc(OC)ccc23)Oc2ccccc21` [Dye V02-06135]: in the series with λDNA, the “Fluorescence relative to TO” value is “None” and the “Fluorescence λ DNA/ssDNA” value is “None”. In addition, in series [1] (Ethanol), the λex stood at 464 nm and the ε is recorded as 43,000.
For `CCN(CC)c1ccc2c(N(C)CCCN(C)C)cc(/C=C3\Sc4ccccc4N3C)[o+]c2c1` [Dye V02-07108], in the series on λDNA, the “Fluorescence relative to TO” value is recorded as 3.1, the “Fluorescence λ DNA/ssDNA” value is on record as 1.8, the “Ratio λ DNA/ss” value turned out to be 1.9 and the “Relative Fluorescent Intensity” value is on record as 3.1. In the series on 40mer dsDNA, the “Relative Fluorescent Intensity” value came to 3.5 and the Ratio ds/ss came out at 1.4. In addition, in series [1] (Ethanol), the λex is on record as 498 nm and the ε is 46,000. Further, in series [1] (TE Buffer, 8 μM dye), the λex stood at 496 nm and the ε was 27,418. For the same compound, in the series with rRNA, the “Ratio rRNA/ds” value was 0.8 and the “Ratio rRNA/ss” value was 1.1.
As for `CCN(CC)c1ccc2c(C=C3Oc4ccccc4N3CC)cc(C(C)(C)C)[o+]c2c1` [Dye V02-06136], in the series on λDNA, the “Fluorescence relative to TO” value is on record as 0.17, the “Fluorescence λ DNA/ssDNA” value is given as 1, the “Ratio λ DNA/ss” value was 1 and the “Relative Fluorescent Intensity” value is reported as 0.17. Also, in the series with 40mer dsDNA, the “Relative Fluorescent Intensity” value was determined as 0.3 and the Ratio ds/ss was determined as 1.8. Moreover, in series [1] (Ethanol), the λex came out at 499 nm and the ε was 72,000. In series [1] (TE Buffer, 8 μM dye), the λex stood at 492 nm and the ε was 35,925.
